Data on one compound can be found in patent US20250368638A1, “BICYCLIC INHIBITORS OF NICOTINAMIDE […], COMPOSITIONS AND USES THEREOF” (President and Fellows of Harvard College, priority 2021, published 2025).

The test system of data set [1] is CYP1A2, CYP2A6, CYP2B6, CYP2C8, CYP2C9, CYP2C19, CYP2D6, CYP2E and CYP3A4. The experiment in a line: CYP inhibition studies in human liver microsomes. Format: in vitro ADME. The conditions noted are these: up to 100 μM. On the procedure: 1. 1 μL of multiple concentrations of test compound or positive control compound (CYP1A2: furafylline, CYP2A6: tranylcypromine, CYP2B6: ketoconazole, CYP2C8: quercetin, CYP2C9: sulfaphenazole, CYP2C19: N-3-benzylnirvanol, CYP2D6: quinidine, CYP2E1: disulfiram and CYP3A4: ketoconazole) was transferred to the “Compound Plate”. The concentrations of test compounds were 0, 0.6, 2, 6, 20, 60, 2000, 6000 and 20000 μM. The concentrations of positive control compounds were 0, 0.2, 1, 2, 10, 50, 200, 2000 and 10000 μM.
2. The master solution was prepared according to the Table 9A and 9B, and pre-warmed in the water bath at 37° C. for 5 minutes. 179 μL of master solutions were transferred to “Incubation Plate”. In the mixed system, the final concentrations of test compound were 0, 0.003, 0.01, 0.03, 0.1, 0.3, 10, 30 & 100 μM, and the final concentrations of positive control compound were 0, 0.001, 0.005, 0.01, 0.05, 0.25, 1, 10 & 50 μM. All experiments were performed in duplicate.
3. The reaction was started with the addition of 20 μL of 10 mM NADPH solution at the final concentration of 1 mM and carried out at 37° C.
4. […]
5. […] The formation of metabolites was analyzed by using LC-MS/MS. […]
6. […] The formation of metabolites were analyzed by using LC-MS/MS. […] The IC50 shift was calculated for evaluating the mechanism of the inhibition.
In general terms: Liver microsomes are a subcellular fraction often used to study metabolism.

For data set [2], the system named is Salmonella typhimurium (TA98, TA1535, TA1537) and Escherichia coli WP2uvrA (pKM101). The experiment in a line: Mini-Ames test. Format: cell-based. The procedure: 1. The study evaluated the mutagenic potential of the test article, (or its metabolites) by measuring its ability to induce reverse mutations at selected loci of bacteria Salmonella typhimurium (TA98, TA1535, TA1537) and Escherichia coli WP2uvrA (pKM101) in both the presence and absence of microsomal enzymes.
2. […] Top agar containing 0.6% (w/v) agar and 0.5% (w/v) sodium chloride were supplemented with 0.5 mM D-biotin and 0.5 mM L-histidine for Salmonella typhimurium strains used or 0.5 mM D-biotin and 0.5 mM L-tryptophan for Escherichia coli WP2uvrA (pKM101) used.
3. In the Mini-Ames test, 4 strains were selected for testing: Salmonella typhimurium (TA98, TA1535.TA1537) and Escherichia coli WP2uvrA (pKM101). The test strains were prepared from frozen working stocks. 10 μL frozen working stock adding in 5 mL nutrient broth were incubated with 220 rpm shaking at 37±2° C. for 10 hours until an optical density (at 650 nm) of 0.6-0.8 were reached. The overnight culture were used for the mutagenicity test.
4. The test article was supplied as the powder and maintained at −20° C. until use. Stock solutions were prepared at 50 mg/mL in DMSO (Table 11A). […]
7. […] If the precipitation dose interfere with the scoring (count the number of the revertants), the lowest precipitating dose should be used as the top dose scored. […]
Background lawns are measured microscopically using a stereoscope. […]
In general terms: The Ames test detects mutagens through reverse mutation in bacteria.

Regarding `C[C@@H]1Cc2cc(C(N)=O)cnc2N1` [Compound 11, (2R)-2-methyl-2,3-dihydro-1H-pyrrolo[2,3-b]pyridine-5-carboxamide], the “Inhibition of CYP isoforms” value in data set [1] is given as “did not inhibit”. Also, in data set [2] (all tested concentrations, every strain, with and without an S9 Fraction), the “F value (Mini Ames)” value was “less than 2”. Also, the “Mutagenicity (Mini-Ames)” value in data set [2] (various bacteria strains, with and without S9) was “not mutagenic”.
